Reference: paper PMC5433425 (PeerJ, 2017)
Values joined by “and” are separate entries in the source; they are usually repeats but may differ in a detail not shown here. Identical values can stand only once. Like-named read-outs stand apart in the source and are kept apart here.

What was measured:
[1] = test system: E. coli AG100tet (AcrAB overexpressing); assay: MIC, broth microdilution; type: cell-based, Escherichia coli; settings: Escherichia coli
E. coli AG100A [2] = assay: microbe, parasite or virus in culture; type: cell-based, Escherichia coli; settings: for MIC: Escherichia coli, AG100A
Experimental: The minimum inhibitory concentrations (MICs) were determined using the broth microdilution method according to the CLSI guidelines ([Clinical and Laboratory Standards Institute, 2014]). […] Two-fold serial dilutions of the compounds were made to achieve the following concentrations: 320 µM–40 µM. The MICs were determined as the lowest concentration at which no visible growth was observed after 18 h of incubation at 37 °C. The assays were performed in triplicate and the MIC value was given as result of at least two concordant values.

E. coli AG100tet [3] = assay: microbe, parasite or virus in culture; type: cell-based, Escherichia coli; settings: Escherichia coli, AG100TET
Experimental: The assays were performed in triplicate and the MIC value was given as result of at least two concordant values.

E. coli AG100A [4] = settings: EtBr […] + inhibitor 20 µM
E. coli AG100 [5] = assay: EtBr efflux by real-time fluorometry; settings: AG100, AG100A and AG100tet (Fig. 2); 80 μM (20 μM for AG100A); glucose, 37 °C
E. coli AG100tet [6] = assay: EtBr accumulation by real-time fluorometry; settings: EtBr 2 µg/ml + inhibitor 80 µM
E. coli AG100 [7] = assay: Membrane potential assay (BacLight, DiOC2(3)); settings: 80 µM
E. coli AG100 [8] = assay: Membrane permeability assay (Live/Dead BacLight)

CN(C)CCCN1c2ccccc2Sc2ccc(Cl)cc21 [CPZ, chlorpromazine]
MIC [1]: 280 µg/mL and 788 µM
reduction in TET MIC (E. coli AG100A [2]; AG100A (pump-deficient strain)): 4 fold
MIC (E. coli AG100A [2]; read-out: MIC of EtBr in presence of the efflux inhibitor): 0.39 µg/mL
MIC (E. coli AG100A [2]; read-out: MIC of OFX in presence of the efflux inhibitor): 0.015 µg/mL
MIC (E. coli AG100A [2]; read-out: MIC of OXA in presence of the efflux inhibitor): 2 µg/mL
MIC (E. coli AG100A [2]; read-out: MIC of TET in presence of the efflux inhibitor): 0.125 µg/mL
MIC (E. coli AG100tet [3]; read-out: MIC of EtBr in presence of the efflux inhibitor, AG100tet, inhibitor 40 μM): 256 µg/mL
MIC (E. coli AG100tet [3]; read-out: MIC of EtBr in presence of the efflux inhibitor, AG100tet, inhibitor 80 μM): 128 µg/mL
MIC (E. coli AG100tet [3]; read-out: MIC of EtBr in presence of the efflux inhibitor, AG100tet, inhibitor 160 μM): 128 µg/mL
MIC (E. coli AG100tet [3]; read-out: MIC of OFX in presence of the efflux inhibitor, AG100tet, inhibitor 40 μM): 0.5 µg/mL
MIC (E. coli AG100tet [3]; read-out: MIC of OFX in presence of the efflux inhibitor, AG100tet, inhibitor 80 μM): 0.5 µg/mL
MIC (E. coli AG100tet [3]; read-out: MIC of OFX in presence of the efflux inhibitor, AG100tet, inhibitor 160 μM): 0.25 µg/mL
MIC (E. coli AG100tet [3]; read-out: MIC of OXA in presence of the efflux inhibitor, AG100tet, inhibitor 40 μM): > 2050 µg/mL
MIC (E. coli AG100tet [3]; read-out: MIC of OXA in presence of the efflux inhibitor, AG100tet, inhibitor 80 μM): 2050 µg/mL
MIC (E. coli AG100tet [3]; read-out: MIC of OXA in presence of the efflux inhibitor, AG100tet, inhibitor 160 μM): 1020 µg/mL
MIC (E. coli AG100tet [3]; read-out: MIC of TET in presence of the efflux inhibitor, AG100tet, inhibitor 40 μM): 32 µg/mL
MIC (E. coli AG100tet [3]; read-out: MIC of TET in presence of the efflux inhibitor, AG100tet, inhibitor 80 μM): 32 µg/mL
MIC (E. coli AG100tet [3]; read-out: MIC of TET in presence of the efflux inhibitor, AG100tet, inhibitor 160 μM): 16 µg/mL
EtBr fluorescence (E. coli AG100A [4]; cycle 1): 2.607
EtBr fluorescence (E. coli AG100A [4]; cycle 2): 3.106
EtBr fluorescence (E. coli AG100A [4]; cycle 3): 3.464
EtBr fluorescence (E. coli AG100A [4]; cycle 4): 4.013
EtBr fluorescence (E. coli AG100A [4]; cycle 5): 4.508
EtBr fluorescence (E. coli AG100A [4]; cycle 6): 5.005
EtBr fluorescence (E. coli AG100A [4]; cycle 7): 5.439
EtBr fluorescence (E. coli AG100A [4]; cycle 8): 6.027
EtBr fluorescence (E. coli AG100A [4]; cycle 9): 6.585
EtBr fluorescence (E. coli AG100A [4]; cycle 10): 7.2591
EtBr fluorescence (E. coli AG100A [4]; cycle 11): 7.711
EtBr fluorescence (E. coli AG100A [4]; cycle 12): 8.1901
EtBr fluorescence (E. coli AG100A [4]; cycle 13): 9.033
EtBr fluorescence (E. coli AG100A [4]; cycle 14): 9.4255
EtBr fluorescence (E. coli AG100A [4]; cycle 15): 10.1045
EtBr fluorescence (E. coli AG100A [4]; cycle 16): 10.9436
EtBr fluorescence (E. coli AG100A [4]; cycle 17): 11.4479
EtBr fluorescence (E. coli AG100A [4]; cycle 18): 12.2134
EtBr fluorescence (E. coli AG100A [4]; cycle 19): 12.6889
EtBr fluorescence (E. coli AG100A [4]; cycle 20): 13.2115
EtBr fluorescence (E. coli AG100A [4]; cycle 21): 13.9156
EtBr fluorescence (E. coli AG100A [4]; cycle 22): 14.6607
EtBr fluorescence (E. coli AG100A [4]; cycle 23): 15.4189
EtBr fluorescence (E. coli AG100A [4]; cycle 24): 16.1017
EtBr fluorescence (E. coli AG100A [4]; cycle 25): 16.6199
EtBr fluorescence (E. coli AG100A [4]; cycle 26): 17.3366
EtBr fluorescence (E. coli AG100A [4]; cycle 27): 18.2879
EtBr fluorescence (E. coli AG100A [4]; cycle 28): 18.7671
EtBr fluorescence (E. coli AG100A [4]; cycle 29): 19.416
EtBr fluorescence (E. coli AG100A [4]; cycle 30): 19.8456
inhibition of EtBr efflux (E. coli AG100 [5]): inhibited
EtBr fluorescence (E. coli AG100tet [6]; cycle 1): 9.834
EtBr fluorescence (E. coli AG100tet [6]; cycle 2): 10.8502
EtBr fluorescence (E. coli AG100tet [6]; cycle 3): 12.3051
EtBr fluorescence (E. coli AG100tet [6]; cycle 4): 13.857
EtBr fluorescence (E. coli AG100tet [6]; cycle 5): 15.5494
EtBr fluorescence (E. coli AG100tet [6]; cycle 6): 17.3058
EtBr fluorescence (E. coli AG100tet [6]; cycle 7): 19.3992
EtBr fluorescence (E. coli AG100tet [6]; cycle 8): 20.8092
EtBr fluorescence (E. coli AG100tet [6]; cycle 9): 23.1444
EtBr fluorescence (E. coli AG100tet [6]; cycle 10): 25.4323
EtBr fluorescence (E. coli AG100tet [6]; cycle 11): 27.4946
EtBr fluorescence (E. coli AG100tet [6]; cycle 12): 29.7214
EtBr fluorescence (E. coli AG100tet [6]; cycle 13): 31.9876
EtBr fluorescence (E. coli AG100tet [6]; cycle 14): 34.2074
EtBr fluorescence (E. coli AG100tet [6]; cycle 15): 36.9702
EtBr fluorescence (E. coli AG100tet [6]; cycle 16): 39.6127
EtBr fluorescence (E. coli AG100tet [6]; cycle 17): 42.5123
EtBr fluorescence (E. coli AG100tet [6]; cycle 18): 45.4508
EtBr fluorescence (E. coli AG100tet [6]; cycle 19): 48.5847
EtBr fluorescence (E. coli AG100tet [6]; cycle 20): 50.7436
EtBr fluorescence (E. coli AG100tet [6]; cycle 21): 54.1808
EtBr fluorescence (E. coli AG100tet [6]; cycle 22): 57.0724
EtBr fluorescence (E. coli AG100tet [6]; cycle 23): 59.5808
EtBr fluorescence (E. coli AG100tet [6]; cycle 24): 63.2028
EtBr fluorescence (E. coli AG100tet [6]; cycle 25): 66.0088
EtBr fluorescence (E. coli AG100tet [6]; cycle 26): 69.6637
EtBr fluorescence (E. coli AG100tet [6]; cycle 27): 72.1
EtBr fluorescence (E. coli AG100tet [6]; cycle 28): 75.2829
EtBr fluorescence (E. coli AG100tet [6]; cycle 29): 78.0686
EtBr fluorescence (E. coli AG100tet [6]; cycle 30): 80.8335
membrane depolarization (E. coli AG100 [7]): similarly to that caused by PQQ4R
BacLight Live/Dead fluorescence 485/20,528/20 (E. coli AG100 [8]; 80 uM, raw well reading): 104 and 88
BacLight Live/Dead fluorescence 485/20,590/35 (E. coli AG100 [8]; 80 uM, raw well reading): 30 and 24
membrane permeability increase / membrane permeation (E. coli AG100 [8]; AG100, 80 µM): 18%
